For 26 compounds, Ki results are on record in patent US9815796B2 (Merck Sharp & Dohme Corp., priority 2013, dated 2017).

Where two headings read alike, the source gives them in different places.

One test addresses Rhesus PDE2A3 (Macaca mulatta, UniProt B3VTJ2). Put plainly: PDE2 fluorescence polarization (IMAP FP) inhibition assay, rhesus enzyme. The test is classed as biochemical, rhesus macaque. Summed up:
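IMAP FP (mP from parallel and perpendicular fluorescence against substrate-only control) was read ≥1 h after adding binding reagent. The preceding 60 min room-temperature reaction contained FAM-cAMP (50 nM) and cGMP (1 uM) in pH 7.2 Tris buffer with MgCl2 and DTT. Enzyme was supernatant of sonicated AD293 cells expressing rhesus PDE2A3; compounds were 3-fold titrated, DMSO 1% final.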
(In general: In fluorescence polarisation assays a small probe gives low polarisation when free and higher when bound to something large.)

The next test concerns the target human PDE2A1 (Homo sapiens (Human), UniProt O00408). Put plainly: IMAP FP PDE selectivity panel, human PDE2A1. The format is biochemical. Summed up:
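IMAP FP format: substrate 50 nM FAM-cAMP plus 1000 nM cGMP, enzyme (insect-cell GST-tagged human PDE2A1) at ~20% conversion, 60 min reaction at room temperature. Apparent inhibition constants calculated from parallel/perpendicular fluorescence with KM 10,000 nM.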

The mark [1] stands for this setting: Rhesus PDE2, Lab B, read-out: Rhesus PDE2 Ki (nM) - Lab B.
The mark [2] stands for this setting: Human PDE2, Lab B, read-out: Human PDE2 Ki (nM) - Lab B.
[3] abbreviates: Rhesus PDE2, Lab A, read-out: Rhesus PDE2 Ki (nM) - Lab A.
The mark [4] stands for this setting: Human PDE2, Lab A, read-out: Human PDE2 Ki (nM) - Lab A.

Chain of human PDE2A1 (O00408 other isoform, or with tags, fused parts or gaps): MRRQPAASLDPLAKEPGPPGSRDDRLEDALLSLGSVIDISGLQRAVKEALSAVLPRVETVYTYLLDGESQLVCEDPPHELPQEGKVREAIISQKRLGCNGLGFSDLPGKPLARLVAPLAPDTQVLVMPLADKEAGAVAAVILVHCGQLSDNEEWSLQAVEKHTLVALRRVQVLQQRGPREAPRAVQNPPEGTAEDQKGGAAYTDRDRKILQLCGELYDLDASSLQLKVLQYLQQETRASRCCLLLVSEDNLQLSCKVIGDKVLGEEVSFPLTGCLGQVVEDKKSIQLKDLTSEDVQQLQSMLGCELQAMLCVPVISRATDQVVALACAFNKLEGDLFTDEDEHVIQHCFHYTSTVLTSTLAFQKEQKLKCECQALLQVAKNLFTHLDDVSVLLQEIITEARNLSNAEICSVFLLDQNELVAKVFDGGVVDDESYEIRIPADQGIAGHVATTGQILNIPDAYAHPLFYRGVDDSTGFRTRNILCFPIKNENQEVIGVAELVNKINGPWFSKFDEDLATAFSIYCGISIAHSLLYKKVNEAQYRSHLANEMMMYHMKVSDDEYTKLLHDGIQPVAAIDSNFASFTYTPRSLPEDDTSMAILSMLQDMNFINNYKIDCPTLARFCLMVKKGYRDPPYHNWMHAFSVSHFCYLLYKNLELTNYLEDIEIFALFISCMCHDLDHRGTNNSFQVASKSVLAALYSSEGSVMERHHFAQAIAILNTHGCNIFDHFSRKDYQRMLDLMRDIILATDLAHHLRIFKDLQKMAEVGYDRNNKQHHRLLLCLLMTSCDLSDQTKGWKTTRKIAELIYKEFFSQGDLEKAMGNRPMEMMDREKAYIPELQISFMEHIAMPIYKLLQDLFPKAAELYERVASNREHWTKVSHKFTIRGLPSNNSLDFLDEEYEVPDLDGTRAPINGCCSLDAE
Chain of Rhesus PDE2A3 (B3VTJ2 1-941): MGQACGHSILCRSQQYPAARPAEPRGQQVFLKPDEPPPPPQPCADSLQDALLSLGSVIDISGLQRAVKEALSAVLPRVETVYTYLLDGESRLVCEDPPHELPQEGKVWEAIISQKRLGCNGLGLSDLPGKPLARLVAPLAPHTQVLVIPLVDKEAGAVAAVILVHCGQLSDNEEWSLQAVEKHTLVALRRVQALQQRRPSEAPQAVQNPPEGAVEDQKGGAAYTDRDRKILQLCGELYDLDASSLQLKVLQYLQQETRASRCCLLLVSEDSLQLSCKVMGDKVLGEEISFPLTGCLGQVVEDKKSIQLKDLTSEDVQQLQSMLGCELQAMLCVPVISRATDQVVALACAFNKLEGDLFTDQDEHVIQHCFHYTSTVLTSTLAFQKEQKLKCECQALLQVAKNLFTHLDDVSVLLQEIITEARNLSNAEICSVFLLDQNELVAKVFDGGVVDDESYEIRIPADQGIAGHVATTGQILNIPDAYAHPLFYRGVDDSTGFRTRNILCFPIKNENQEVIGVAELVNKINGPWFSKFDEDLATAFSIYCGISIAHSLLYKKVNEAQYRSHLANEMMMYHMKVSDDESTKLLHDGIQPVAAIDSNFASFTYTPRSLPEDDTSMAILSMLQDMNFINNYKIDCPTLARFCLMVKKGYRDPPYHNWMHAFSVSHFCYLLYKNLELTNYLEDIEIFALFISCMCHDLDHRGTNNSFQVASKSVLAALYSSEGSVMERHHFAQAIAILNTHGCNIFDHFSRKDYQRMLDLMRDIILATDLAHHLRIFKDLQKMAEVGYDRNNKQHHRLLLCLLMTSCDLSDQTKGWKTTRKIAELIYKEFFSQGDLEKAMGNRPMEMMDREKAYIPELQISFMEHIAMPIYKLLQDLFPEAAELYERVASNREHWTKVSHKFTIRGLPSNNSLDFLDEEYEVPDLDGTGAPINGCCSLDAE

On to `CC[C@@H](NC(=O)c1cc(=O)[nH]c(Cc2ccc(OC)cc2)n1)c1ccc(SC(F)(F)F)cc1` [Example 476, 2-(4-methoxybenzyl)-6-oxo-N-[(1R)-1-{4-[(trifluoromethyl)sulfanyl]phenyl}propyl]-1,6-dihydropyrimidine-4-carboxamide], for which the Ki (commonly the equilibrium dissociation constant of an inhibitor or competing ligand from its target) stood at 1.4 nM on Rhesus PDE2A3 (setting [1]) and 1.8 nM at human PDE2A1 (setting [2]).
For `CC[C@@H](NC(=O)c1cc(=O)[nH]c(Cc2ccc(OC)cc2)n1)c1ccc(SC(F)(F)F)c(F)c1` [Example 477, N-[(1R)-1-{3-fluoro-4-[(trifluoromethyl)sulfanyl]phenyl}propyl]-2-(4-methoxybenzyl)-6-oxo-1,6-dihydropyrimidine-4-carboxamide] the same measures were 1.5 nM and 1.7 nM.
On to `CC[C@@H](NC(=O)c1cc(=O)[nH]c(C2CC2)n1)c1ccc(S(F)(F)(F)(F)F)cc1` [Example 242, 2-cyclopropyl-6-oxo-N-{(1R)-1-[4-(pentafluoro-λ^6-sulfanyl)phenyl]propyl}-1,6-dihydropyrimidine-4-carboxamide], for which the Ki on Rhesus PDE2A3 (setting [3]) amounted to 5 nM; on Rhesus PDE2A3 (setting [1]), 10 nM; on human PDE2A1 (setting [2]), 9.2 nM.
With `COCc1nc(C(=O)N[C@H](C)c2ccc(C(C)C)cc2)cc(=O)[nH]1` [Example 122, 2-(methoxymethyl)-N-{(1R)-1-[4-(1-methylethyl)phenyl]ethyl}-6-oxo-1,6-dihydropyrimidine-4-carboxamide], the inhibition constant Ki stood at 152 nM on Rhesus PDE2A3 (setting [3]) and 38 nM on human PDE2A1 (setting [4]).
For `CCc1nc(C(=O)NC2(c3ccc(C(F)(F)F)c(F)c3)CC2)cc(=O)[nH]1` [Example 601, 2-ethyl-N-{1-[3-fluoro-4-(trifluoromethyl)phenyl]cyclopropyl}-6-oxo-1,6-dihydropyrimidine-4-carboxamide], the Ki on Rhesus PDE2A3 (setting [1]) came to 8 nM; at human PDE2A1 (setting [2]), 8.2 nM.
For `O=C(N[C@@H](c1ccc(SC(F)(F)F)c(F)c1)C1CC1)c1cc(=O)[nH]c(-c2ccccc2)n1` [Example 417, N-[(R)-cyclopropyl{3-fluoro-4-[(trifluoromethyl)sulfanyl]phenyl}methyl]-6-oxo-2-phenyl-1,6-dihydropyrimidine-4-carboxamide] the same measures were 12 nM and 9.8 nM.
For `Cc1nc(C(=O)N[C@H](C)c2ccc(OC(F)(F)F)c(F)c2)cc(=O)[nH]1` [Example 22, N-{(1R)-1-[3-fluoro-4-(trifluoromethoxy)phenyl]ethyl}-2-methyl-6-oxo-1,6-dihydropyrimidine-4-carboxamide], the Ki on Rhesus PDE2A3 (setting [3]) amounted to 13 nM; on Rhesus PDE2A3 (setting [1]), 14 nM; at human PDE2A1 (setting [4]), 8.6 nM; on human PDE2A1 (setting [2]), 14 nM.
As to `COc1ccc(Cc2nc(C(=O)N[C@@H](c3ccc(S(F)(F)(F)(F)F)cc3)C3CC3)cc(=O)[nH]2)cc1F` [Example 510, N-{(R)-cyclopropyl[4-(pentafluoro-λ^6-sulfanyl)phenyl]methyl}-2-(3-fluoro-4-methoxybenzyl)-6-oxo-1,6-dihydropyrimidine-4-carboxamide], the Ki at Rhesus PDE2A3 (setting [1]) amounted to 3.3 nM; on human PDE2A1 (setting [2]), 2.8 nM.
In the case of `CC(NC(=O)c1cc(=O)[nH]c(-c2ncccn2)n1)c1ccc(C2CC2)cc1` (stereo not drawn) [Example 83, N-[1-(4-cyclopropylphenyl)ethyl]-6-oxo-1,6-dihydro-2,2′-bipyrimidine-4-carboxamide], the Ki at Rhesus PDE2A3 (setting [3]) is 21 nM; at Rhesus PDE2A3 (setting [1]), 26 nM; at human PDE2A1 (setting [4]), roughly 5.4 nM; at human PDE2A1 (setting [2]) it was 27 nM.
Take `COC(=O)c1ccc([C@@H](C)NC(=O)c2cc(=O)[nH]c(-c3ccccc3)n2)cc1` [Example 359, methyl 4-[(1R)-1-{[(6-oxo-2-phenyl-1,6-dihydropyrimidin-4-yl)carbonyl]amino}ethyl]benzoate]: the Ki stood at 62 nM at Rhesus PDE2A3 (setting [3]), 173 nM on Rhesus PDE2A3 (setting [1]) and 129 nM on human PDE2A1 (setting [2]).
For `C[C@@H](NC(=O)c1cc(=O)[nH]c(-c2ccccc2)n1)c1ccc(C(F)(F)F)c(Cl)c1` [Example 190, N-{(1R)-1-[3-chloro-4-(trifluoromethyl)phenyl]ethyl}-6-oxo-2-phenyl-1,6-dihydropyrimidine-4-carboxamide], the Ki on Rhesus PDE2A3 (setting [3]) was 6.4 nM; on human PDE2A1 (setting [4]), 6.1 nM.
As for `Cc1nc(C(=O)N[C@@H](c2ccc(C(F)(F)F)cc2F)C(C)(C)C)cc(=O)[nH]1` [Example 617], the Ki worked out at 4.2 nM at Rhesus PDE2A3 (setting [1]) and 4 nM on human PDE2A1 (setting [2]).
In the case of `CC(C)(NC(=O)c1cc(=O)[nH]c(C2CC2)n1)c1ccc(SC(F)(F)F)c(F)c1` [Example 266, 2-cyclopropyl-N-(1-{3-fluoro-4-[(trifluoromethyl)sulfanyl]phenyl}-1-methylethyl)-6-oxo-1,6-dihydropyrimidine-4-carboxamide], the figures for the Ki on Rhesus PDE2A3 (setting [3]) and on human PDE2A1 (setting [4]) were 86 nM and 65 nM, respectively.
Regarding `COc1ccc(Cc2nc(C(=O)N[C@@H](c3ccc(OC(F)(F)F)cc3)C3CC3)cc(=O)[nH]2)cc1` [Example 480, N-{(R)-cyclopropyl[4-(trifluoromethoxy)phenyl]methyl}-2-(4-methoxybenzyl)-6-oxo-1,6-dihydropyrimidine-4-carboxamide], the Ki on Rhesus PDE2A3 (setting [1]) and on human PDE2A1 (setting [2]) was 1.9 nM throughout.
Take `Cc1nc(C(=O)N[C@@H](c2ccc(SC(F)(F)F)c(F)c2)C(C)C)cc(=O)[nH]1` [Example 53, N-[(1R)-1-{3-fluoro-4-[(trifluoromethyl)sulfanyl]phenyl}-2-methylpropyl]-2-methyl-6-oxo-1,6-dihydropyrimidine-4-carboxamide]: the Ki at Rhesus PDE2A3 (setting [3]) turned out to be 3.6 nM; on human PDE2A1 (setting [4]), 2.8 nM.
On to `Cc1nc(C(=O)NC(C)(c2ccc(S(F)(F)(F)(F)F)cc2)C(C)C)cc(=O)[nH]1` (single isomer, unassigned) [Example 663, (R)- or (S)-N-{1,2-dimethyl-1-[4-(pentafluoro-λ^6-sulfanyl)phenyl]propyl}-2-methyl-6-oxo-1,6-dihydropyrimidine-4-carhoxamide], for which the Ki at Rhesus PDE2A3 (setting [1]) worked out at 30 nM; at human PDE2A1 (setting [2]), 34 nM.
For the compound `C[C@@H](NC(=O)c1cc(=O)[nH]c(-c2ccccc2)n1)c1ccc(SC(F)(F)F)c(F)c1` [Example 398, N-[(1R)-1-{3-fluoro-4-[(trifluoromethyl)sulfanyl]phenyl}eth-yl]-6-oxo-2-phenyl-1,6-dihydropyrimidine-4-carboxamide], the inhibition constant (Ki) at Rhesus PDE2A3 (setting [1]) is 2.9 nM; at human PDE2A1 (setting [2]), 2.3 nM.
`CC[C@@H](NC(=O)c1cc(=O)[nH]c(-c2ccccc2)n1)c1ccc(OC(F)(F)F)c(F)c1` [Example 172]: the inhibition constant Ki on Rhesus PDE2A3 (setting [3]) was determined as 2.7 nM; on human PDE2A1 (setting [4]) it was 1.9 nM.
For `CC(C)(NC(=O)c1cc(=O)[nH]c(C2CC2)n1)c1ccc(C(F)(F)F)c(F)c1` [Example 200, 2-cyclopropyl-N-{1-[3-fluoro-4-(trifluoromethyl)phenyl]-1-methylethyl}-6-oxo-1,6-dihydropyrimidine-4-carboxamide], in that order: 16 nM and 9.2 nM.
For the compound `COc1ccc(Cc2nc(C(=O)N[C@@H](c3ccc(OC(F)(F)F)cc3)C3CC3)cc(=O)[nH]2)cc1F` [Example 524, N-{(R)-cyclopropyl[4-(trifluoromethoxy)phenyl]methyl}-2-(3-fluoro-4-methoxybenzyl)-6-oxo-1,6-dihydropyrimidine-4-carboxamide], the inhibition constant (Ki) on Rhesus PDE2A3 (setting [1]) and at human PDE2A1 (setting [2]) was 2.1 nM in each case.
As to `COc1ccc(Cc2nc(C(=O)N[C@H](C)c3ccc(C(F)(F)F)cc3)cc(=O)[nH]2)cc1` [Example 136, 2-(4-methoxybenzyl)-6-oxo-N-{(1R)-1-[4-(trifluoromethyl)phenyl]ethyl}-1,6-dihydropyrimidine-4-carboxamide], the Ki amounted to 6.3 nM at Rhesus PDE2A3 (setting [3]) and 2.2 nM on human PDE2A1 (setting [4]).
Turning to `COCc1nc(C(=O)N[C@H](C)c2ccc(OC(F)(F)F)c(F)c2)cc(=O)[nH]1` [Example 126, N-{(1R)-1-[3-fluoro-4-(trifluoromethoxy)phenyl]-ethyl}-2-(methoxymethyl)-6-oxo-1,6-dihydropyrimidine-4-carboxamide], the Ki is 48 nM on Rhesus PDE2A3 (setting [3]), 61 nM at Rhesus PDE2A3 (setting [1]), roughly 11 nM on human PDE2A1 (setting [4]) and 64 nM at human PDE2A1 (setting [2]).
Regarding `CC(C)[C@@H](NC(=O)c1cc(=O)[nH]c(-c2ncccn2)n1)c1ccc(OC(F)(F)F)c(F)c1` [Example 74, N-{(1R)-1-[3-fluoro-4-(trifluoromethoxy)phenyl]-2-methylpropyl}-6-oxo-1,6-dihydro-2,2′-bipyrimidine-4-carboxamide], the Ki at Rhesus PDE2A3 (setting [3]) worked out at 5 nM; on Rhesus PDE2A3 (setting [1]), 4.8 nM; on human PDE2A1 (setting [2]), 4.7 nM.
Consider `O=C(NC1(c2ccc(SC(F)(F)F)c(F)c2)CC1)c1cc(=O)[nH]c(C2CC2)n1` [Example 252, 2-cyclopropyl-N-(1-{3-fluoro-4-[(trifluoromethyl)sulfanyl]phenyl}cyclopropyl)-6-oxo-1,6-dihydropyrimidine-4-carboxamide], for which the Ki at Rhesus PDE2A3 (setting [3]) was 8.7 nM; on Rhesus PDE2A3 (setting [1]), 14 nM; at human PDE2A1 (setting [4]) it was roughly 13 nM; on human PDE2A1 (setting [2]), 20 nM.
Regarding `Cc1ccccc1-c1nc(C(=O)N[C@H](C)c2ccc(C(F)(F)F)cc2)cc(=O)[nH]1` [Example 141, 2-(2-methylphenyl)-6-oxo-N-{(1R)-1-[4-(trifluoromethyl)phenyl]ethyl}-1,6-dihydropyrimidine-4-carboxamide], the Ki at Rhesus PDE2A3 (setting [3]) turned out to be 136 nM; on human PDE2A1 (setting [4]) it was 110 nM.
With `COc1ccc(C(C)(C)c2nc(C(=O)N[C@@H](c3ccc(C(F)(F)F)c(F)c3)C(C)C)cc(=O)[nH]2)cc1` [Example 486, N-{(1R)-1-[3-fluoro-4-(trifluoromethyl)phenyl]-2-methylpropyl}-2-[1-(4-methoxyphenyl)-1-methylethyl]-6-oxo-1,6-dihydropyrimidine-4-carboxamide], the Ki stood at 60 nM at Rhesus PDE2A3 (setting [1]) and 46 nM at human PDE2A1 (setting [2]).
